Assay results from US10030016B2 (Sunesis Pharmaceuticals, Inc., priority 2009, dated 2018).
Counter-ions that a name gives are not always drawn. Like-named read-outs stand apart in the source and are kept apart here.

What was measured:
PDK1 = PDK1 (Homo sapiens (Human), UniProt O15530); assay: PDK1 kinase assay (coupled PDK1/AKT/FAM-crosstide assay, IMAP fluorescence polarization); format: biochemical
Outline: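 GST-tagged PDK1 (aa 51-359, 0.75 nM) was coupled to unphosphorylated GST-AKT2 140-467-PIFtide (10 nM) and 100 nM FAM-crosstide at 40 μM ATP, in Tris pH 7.2 buffer, for 30 min at 25 °C. Crosstide phosphorylation was read by IMAP fluorescence polarization (ΔmP) and fitted with a 4-parameter curve.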

[1] = tested on: phospho-akt (Thr308) in PC-3 cells; assay: Inhibition of phospho-akt (Thr308) in PC-3 cells, MSD phospho-akt 308 ELISA kit; format: cell-based; details: Homo sapiens, 2 hours, no serum, read-out: EC50
Outline: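 PC-3 cells were seeded overnight in growth medium with 10% FBS, then exposed to compound serially diluted threefold in serum-free medium for 2 hours. Lysates were captured overnight at 4 degrees on MSD plates and phospho-Akt Thr308 was detected electrochemiluminescently, against DMSO high and 5 μM wortmannin low controls.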

[2] = inhibition of phospo-PDK1 in vitro
[3] = inhibition of P308 Akt in PC-3 cells, MSD
[4] = inhibition of P308 Akt in PC-3 cells using MSD
[5] = PC-3, 2 h, inhibition of P308 Akt in PC-3 cells, MSD

Chain of PDK1 (O15530 51-359): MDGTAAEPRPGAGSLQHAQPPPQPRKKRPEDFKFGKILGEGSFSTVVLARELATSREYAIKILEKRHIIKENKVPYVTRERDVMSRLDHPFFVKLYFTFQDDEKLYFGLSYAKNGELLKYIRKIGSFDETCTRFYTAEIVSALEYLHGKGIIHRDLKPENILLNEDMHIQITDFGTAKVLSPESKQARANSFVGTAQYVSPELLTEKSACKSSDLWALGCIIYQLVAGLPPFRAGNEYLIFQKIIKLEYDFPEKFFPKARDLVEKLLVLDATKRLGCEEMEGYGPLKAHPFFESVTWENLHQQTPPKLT

Row | SMILES | IC50 (PDK1; [2]) [µM] | EC50 [1, 3] [µM] | IC50 (PDK1; inhibition of PDK1 in vitro) [µM] | EC50 [1, 4] [µM] | EC50 [1, 5] [µM]
1 | Nc1ncnc2ccc(-c3ccc(CNc4ncc(C(F)(F)F)cc4C(=O)NCc4ccc(F)c(F)c4)s3)cc12 [Ex. 8.12.1, 2-(((5-(4-aminoquinazolin-6-yl)thiophen-2-yl)methyl)amino)-N-(3,4-difluorobenzyl)-5-(trifluoromethyl)nicotinamide] | < 0.1 | < 1 | – | – | –
2 | C[C@H](NC(=O)c1cccnc1NCc1ccc(-c2cnc3[nH]ncc3c2)cc1)c1ccc(F)cc1 [Example 392, N-[(S)-1-(4-Fluoro-phenyl)-ethyl]-2-[4-(1H-pyrazolo [3,4-b]pyridin-5-yl)-benzylamino]-nicotinamide] | – | – | < 0.1 | 1 to 10 | –
3 | CNC(=O)c1cc(S(=O)(=O)N2CCCCC2)cnc1NCc1ccc(-c2ccc3ncnc(N)c3c2)s1 [Example 8.6.19] | > 5 | > 10 | – | – | –
4 | Nc1n[nH]c2ncc(-c3ccc(CNc4ncc(C(F)(F)F)cc4C(=O)NCc4cccc(Cl)c4)cc3)cc12 [Example 281, 2-(4-(3-amino-1H-pyrazolo [3,4-b]pyridin-5-yl)benzylamino)-N-(3-chlorobenzyl)-5-(trifluoromethyl)nicotinamide] | – | – | < 0.1 | < 1 | –
5 | CN(C)/C=N/c1cnc(NCc2ccc(-c3ccc4ncnc(N)c4c3)s2)c(C(=O)NCc2ccc(F)c(F)c2)c1 [Example 8.6.5, 2-({[5-(4-aminoquinazolin-6-yl)thiophen-2-yl]methyl}amino)-N-(3,4-difluorobenzyl)-5-{[(E)-(dimethylamino)methylidene]amino}pyridine-3-carboxamide] | 0.1 to 1 | – | – | – | 1 to 10
6 | CNc1ncc(-c2ccc(CNc3ncc(C#N)cc3C(=O)N[C@@H](C)c3ccc(F)cc3)cc2)cc1F [Example 109] | – | – | > 5 | > 10 | –
7 | C[C@H](NC(=O)c1cc(C#N)cnc1NCc1ccc(-c2ncnc(N)c2F)cc1)c1ccc(F)cc1 [Example 101, (S)-2-(4-(6-amino-5-fluoropyrimidin-4-yl)-benzylamino)-5-cyano-N-(1-(4-fluorophenyl)ethyl)nicotinamide] | – | – | > 5 | > 10 | –
8 | N#Cc1cnc(NCc2ccc(-c3cnc4[nH]nc(N)c4c3)cc2)c(C(=O)NCc2ccc(F)cc2)n1 [Example 33, 3-(4-(3-amino-1H-pyrazolo[3,4-b]pyridin-5-yl)benzylamino)-6-cyano-N-(4-fluorobenzyl) pyrazine-2-carboxamide] | < 0.1 | < 1 | – | – | –
9 | C[C@H](NC(=O)c1cc(C#N)cnc1NCc1ccc(-c2c[nH]nc2N)cc1)c1ccc(F)cc1 [Example 142, (S)-2-(4-(3-amino-1H-pyrazol-4-yl)benzylamino)-5-cyano-N-(1-(4-fluorophenyl)ethyl) nicotinamide] | – | – | > 5 | 1 to 10 | –
10 | C#CCNC(=O)c1cc(C(F)(F)F)cnc1NCc1ccc(-c2cnc3[nH]nc(N)c3c2)cc1 [Example 271, 2-(4-(3-amino-1H-pyrazolo [3,4-b]pyridin-5-yl)benzylamino)-N-(prop-2-ynyl)-5-(trifluoromethyl) nicotinamide] | – | – | 0.1 to 1 | 1 to 10 | –
11 | CN1CCN(S(=O)(=O)c2cnc(NCc3ccc(-c4ccc5ncnc(N)c5c4)s3)c(C(=O)NCc3ccc(F)c(F)c3)c2)CC1 [Example 8.6.10, 2-(((5-(4-aminoquinazolin-6-yl)thiophen-2-yl)methyl)amino)-N-(3,4-difluorobenzyl)-5-(4-methylpiperazin-1-ylsulfonyl)nicotinamide] | 0.1 to 1 | – | – | – | 1 to 10
12 | CC(C)Oc1cc(CNc2ncccc2C(=O)NCC2CC2)cc(-c2c[nH]c3ncc(C(=O)NC4CC4)cc23)c1 [Example 4.1.11, N-cyclopropyl-3-{3-[({3-[(cyclopropylmethyl)carbamoyl]pyridin-2-yl}amino)methyl]-5-(propan-2-yloxy)phenyl}-1H-pyrrolo[2,3-b] pyridine-5-carboxamide] | 0.1 to 1 | 1 to 10 | – | – | –
13 | O=C(NCc1ccc(F)c(F)c1)c1ccccc1NCc1cccc(-c2c[nH]c3ncccc23)c1 [Example 1.20, 2-(3-(1H-pyrrolo[2,3-b]pyridin-3-yl)benzylamino)-N-(3,4-difluorobenzyl)benzamide] | < 0.1 | 1 to 10 | – | – | –
14 | C[C@H](NC(=O)c1cc(C#N)cnc1NCc1ccc(-c2cnc3[nH]c(=O)[nH]c3c2)cc1F)c1ccc(F)cc1 [Example 126, (S)-5-cyano-2-(2-fluoro-4-(2-oxo-2,3-dihydro-1H-imidazo[4,5-b]pyridin-6-yl)benzyl-amino)-N-(1-(4-fluorophenyl)ethyl) nicotinamide] | – | – | < 0.1 | < 1 | –
15 | CCC(C)NS(=O)(=O)c1cnc(NCc2ccc(-c3ccc4ncnc(N)c4c3)s2)c(C(=O)NCc2ccc(F)c(F)c2)c1 (stereo not drawn) [Example 8.7.10, 2-({[5-(4-aminoquinazolin-6-yl)thiophen-2-yl]methyl}amino)-5-(butan-2-ylsulfamoyl)-N-(3,4-difluorobenzyl)pyridine-3-carboxamide] | 0.1 to 1 | 1 to 10 | – | – | –
16 | Nc1n[nH]c2ncc(-c3ccc(CNc4ncc(C(F)(F)F)cc4C(=O)N[C@@H](CO)c4ccc(F)cc4)cc3)cc12 [Example 308, (R)-2-(4-(3-amino-1H-pyrazolo [3,4-b]pyridin-5-yl)benzylamino)-N-(1-(4-fluorophenyl)-2-hydroxyethyl)-5-(trifluoromethyl)nicotinamide] | – | – | < 0.1 | < 1 | –
17 | C[C@H](NC(=O)c1cccnc1NCc1ccc(-c2cn(C)c(=O)c3ccccc23)s1)c1ccc(F)cc1 [Example 2.10, (S)-N-(1-(4-fluorophenyl)ethyl)-2-(((5-(2-methyl-1-oxo-1,2-di-hydroisoquinolin-4-yl)thiophen-2-yl)methyl)amino)nicotinamide] | > 5 | > 10 | – | – | –
18 | C[C@H](NC(=O)c1cc(C#N)cnc1NCc1ccc(-c2cnc(N)c(N3CCC[C@@H](N)C3)n2)cc1)c1ccc(F)cc1 [Example 188, 2-{4-[5-Amino-6-((R)-3-amino-piperidin-1-yl)-pyrazin-2-yl]-benzylamino}-5-cyano-N-[(S)-1-(4-fluoro-phenyl)-ethyl]-nicotinamide] | – | – | < 0.1 | 1 to 10 | –
19 | Cn1cnc2cnc(-c3ccc(CNc4nc5c(cc4C(=O)NCc4ccc(F)c(F)c4)CCC5)s3)cc21 [Example 8.15.2, N-(3,4-difluorobenzyl)-2-({[5-(1-methyl-1H-imidazo[4,5-c]pyridin-6-yl)thiophen-2-yl]methyl}amino)-6,7-dihydro-5H-cyclopenta[b] pyridine-3-carboxamide] | > 5 | > 10 | – | – | –
20 | Nc1n[nH]c2ncc(-c3ccc(CNc4ncc(C(F)(F)F)cc4C(=O)NC4COC4)cc3)cc12 [Example 298, 2-(4-(3-amino-1H-pyrazolo [3,4-b]pyridin-5-yl)benzylamino)-N-(oxetan-3-yl)-5-(trifluoromethyl) nicotinamide] | – | – | 1 to 5 | > 10 | –

Other lines, results leading:

Row | IC50 (PDK1; [2]) [µM] | EC50 [1, 3] [µM] | IC50 (PDK1; inhibition of PDK1 in vitro) [µM] | EC50 [1, 4] [µM] | EC50 [1, 5] [µM] | SMILES
21 | > 5 | 1 to 10 | – | – | – | COc1ccc([C@H](COc2ccc([N+](=O)[O-])c(N)c2)Nc2ncccc2C(=O)N[C@@H](C)c2ccc(F)c(F)c2)cc1 [Example 16.5, 2-((R)-2-(3-amino-4-nitrophenoxy)-1-(4-methoxyphenyl)ethylamino)-N-((S)-1-(3,4-difluorophenyl)ethyl)nicotinamide]
22 | > 5 | > 10 | – | – | – | C[C@@H](NC(=O)c1cccnc1NCc1ccc(-c2ccc3ncnc(N)c3c2)s1)c1cccc(F)c1 [Example 3.20, 2-({[5-(4-aminoquinazolin-6-yl)thiophen-2-yl]methyl}amino)-N-[(1R)-1-(3-fluorophenyl)ethyl] pyridine-3-carboxamide (TFA salt)]
23 | 1 to 5 | > 10 | – | – | – | Nc1ncnc2ccc(-c3ccc(CNc4ncccc4C(=O)NCc4ccccn4)s3)cc12 [Example 3.25, 2-({[5-(4-aminoquinazolin-6-yl)thiophen-2-yl]methyl}amino)-N-(pyridin-2-ylmethyl)pyridine-3-carboxamide (TFA salt)]
24 | < 0.1 | 1 to 10 | – | – | – | Cn1nc(Nc2ncccc2C(=O)NCc2ccc(F)c(F)c2)c2cc(-c3c[nH]c4ncccc34)ccc21 [Example 14.1, N-(3,4-difluorobenzyl)-2-(1-methyl-5-(1H-pyrrolo[2,3-b]pyridin-3-yl)-1H-indazol-3-ylamino)nicotinamide]
25 | > 5 | > 10 | – | – | – | COc1ccc([C@H](COc2ccc(N)c(N)c2)Nc2ncccc2C(=O)N[C@@H](C)c2ccc(F)c(F)c2)cc1 [Example 16.6, 2-((R)-2-(3,4-diaminophenoxy)-1-(4-methoxyphenyl)ethylamino)-N-((S)-1-(3,4-difluorophenyl)ethyl)nicotinamide]
26 | 0.1 to 1 | < 1 | – | – | – | C[C@H](NC(=O)c1cc(C(F)(F)F)cnc1NC/C=C/c1ccc2c(c1)NC(=O)/C2=C\c1cnc[nH]1)c1ccc(F)c(F)c1 [Example 15.2, 2-((E)-3-((Z)-3-((1H-imidazol-5-yl)methylene)-2-oxoindolin-6-yl)allylamino)-N-((S)-1-(3,4-difluorophenyl)ethyl)-5-(trifluoromethyl)nicotinamide]
27 | 0.1 to 1 | – | – | – | > 10 | Cc1ccc(CNC(=O)c2cccnc2NCc2ccc(-c3ccc4ncnc(N)c4c3)s2)o1 [Example 3.17, 2-({[5-(4-aminoquinazolin-6-yl)thiophen-2-yl]methyl}amino)-N-[(5-methylfuran-2-yl)methyl] pyridine-3-carboxamide (TFA salt)]
